Results taken from patent US9714228B2, “Dihydrofuran derivatives as insecticidal compounds” (Syngenta Participations AG, priority 2010, dated 2017).

Tests used:
Assay type in all cases: in vivo
Diabrotica balteata = test: Diabrotica balteata, L2 larvae on treated artificial diet; conditions: 120 h, 200 ppm (concentration in well 18 ppm), 5 days incubation
Method: (§1) Diabrotica balteata (Corn Root Worm): A 24-well microtiter plate (MTP) with artificial diet was treated with test solutions at an application rate of 200 ppm (concentration in well 18 ppm) by pipetting. After drying, the MTPs were infested with L2 larvae (6-10 per well). After an incubation period of 5 days, samples were checked for larval mortality and growth regulation.

Thrips tabaci = test: Thrips tabaci, sprayed sunflower leaf discs; conditions: foliar, 168 h, sunflower leaf discs sprayed at 200 ppm, mixed ages, mortality after 7 days
Method: Thrips tabaci (Onion Thrips): Sunflower leaf discs were placed on agar in a 24-well microtiter plate and sprayed with test solutions at an application rate of 200 ppm. After drying, the leaf discs were infested with an […] population of mixed ages. After an incubation period of 7 days, samples were checked for mortality.

Spodoptera littoralis [1] = test: Spodoptera littoralis, sprayed cotton leaf discs, L1 larvae; conditions: foliar, 72 h, cotton leaf discs sprayed at 200 ppm, 3 days after treatment
Excerpt: Spodoptera littoralis (Egyptian Cotton Leafworm): Cotton leaf discs were placed on agar in a 24-well microtiter plate and sprayed with test solutions at an application rate of 200 ppm. After drying, the leaf discs were infested with 5 L1 larvae. The samples were checked for mortality, feeding behavior, and growth regulation 3 days after treatment (DAT).

Plutella xylostella = test: Plutella xylostella, L2 larvae on treated artificial diet; conditions: 144 h, 200 ppm (concentration in well 18 ppm), 6 days incubation
Method: as §1, with “Plutella xylostella (Diamond Back Moth):” for “Diabrotica balteata (Corn Root Worm): A”, “(7-12” for “(6-10”, “6” for “5”

Spodoptera littoralis [2] = test: Spodoptera littoralis (systemic), salad grown on treated agar, eggs; conditions: 120 h, application rate 12.5 ppm, checked 5 days after infestation (mortality, repellent effect, feeding behavior, growth regulation)
Excerpt: Spodoptera littoralis (Systemic) (Egyptian Cotton Leaf Worm) Test compounds were applied by pipette into 24 well plates and mixed with agar. Salad seeds were placed on the agar and the multi well plate is closed by another plate which contains also agar. After 7 days the roots have absorbed the compound and the salad has grown into the lid plate. The salad leafs were now cut off into the lid plate. Spodoptera eggs were pipette through a plastic stencil on a humid gel blotting paper and the plate closed with it. The samples are checked for mortality, repellent effect, feeding behavior, and growth regulation 5 days after infestation. Application rate: 12.5 ppm

Heliothis virescens = test: Heliothis virescens, eggs on treated artificial diet; conditions: 96 h, 200 ppm (concentration in well 18 ppm), 4 days incubation
Method: Heliothis virescens (Tobacco Budworm): Eggs (0-24 h old) were placed in 24-well microtiter plate on artificial diet and treated with test solutions at an application rate of 200 ppm (concentration in well 18 ppm) by pipetting. After an incubation period of 4 days, samples were checked for egg mortality, larval mortality, and growth regulation.

Myzus persicae = Myzus persicae (sachet), mixed population, sucrose solution; conditions: 120 h, application rate 12.5 ppm, mortality 5 days after infestation
Excerpt: Myzus persicae (Sachet) (Green Peach Aphid) Mixed Population Test compounds were applied by pipette into 24 well plates and mixed with Sucrose solution. The plates were closed with a stretched Parafilm. A plastic stencil with 24 holes is placed onto the plate and infested pea seedlings were placed directly on the Parafilm. The infested plate is closed with a gel blotting paper and another plastic stencil and then turned upside down. 5 days after infestation the samples were checked on mortality. Application rate: 12.5 ppm.

Tetranychus urticae = test: Tetranychus urticae, sprayed bean leaf discs; conditions: foliar, 192 h, bean leaf discs sprayed at 200 ppm, mixed ages, checked 8 days later
Excerpt: Tetranychus urticae (Two-Spotted Spider Mite): Bean leaf discs on agar in 24-well microtiter plates were sprayed with test solutions at an application rate of 200 ppm. After drying, the leaf discs are infested with mite populations of mixed ages. 8 days later, discs are checked for egg mortality, larval mortality, and adult mortality.

Cc1cc(C2=COC(c3cc(Cl)cc(Cl)c3)(C(F)(F)F)C2)ccc1C(=O)NCC(F)(F)F (centres unmarked) [Compound D1]
≥ 80%: pest or weed control at 200 ppm (Diabrotica balteata) | pest or weed control at 200 ppm (Thrips tabaci) | pest or weed control at 200 ppm (Spodoptera littoralis [1]) | pest or weed control at 200 ppm (Plutella xylostella) | pest or weed control at 12.5 ppm (Spodoptera littoralis [2]) | pest or weed control at 200 ppm (Heliothis virescens)

Cc1cc(C2=COC(c3cc(Cl)cc(Cl)c3)(C(F)(F)F)C2)ccc1C(=O)NCC1CCCO1 (centres unmarked) [Compound D8]
≥ 80%: pest or weed control at 12.5 ppm (Myzus persicae) | pest or weed control at 200 ppm (Diabrotica balteata) | pest or weed control at 200 ppm (Tetranychus urticae) | pest or weed control at 200 ppm (Thrips tabaci) | pest or weed control at 200 ppm (Spodoptera littoralis [1]) | pest or weed control at 200 ppm (Plutella xylostella) | pest or weed control at 12.5 ppm (Spodoptera littoralis [2]) | pest or weed control at 200 ppm (Heliothis virescens)

Cc1cc(C2=COC(c3cc(Cl)cc(Cl)c3)(C(F)(F)F)C2)ccc1C(=O)NCc1ccccc1 (centres unmarked) [Compound D9]
≥ 80%: pest or weed control at 12.5 ppm (Myzus persicae) | pest or weed control at 200 ppm (Diabrotica balteata) | pest or weed control at 200 ppm (Tetranychus urticae) | pest or weed control at 200 ppm (Thrips tabaci) | pest or weed control at 200 ppm (Spodoptera littoralis [1]) | pest or weed control at 200 ppm (Plutella xylostella) | pest or weed control at 200 ppm (Heliothis virescens)

Cc1cc(C2=COC(c3cc(Cl)cc(Cl)c3)(C(F)(F)F)C2)ccc1C(=O)NCc1ccccc1F (centres unmarked) [Compound D10]
≥ 80%: pest or weed control at 12.5 ppm (Myzus persicae) | pest or weed control at 200 ppm (Diabrotica balteata) | pest or weed control at 200 ppm (Tetranychus urticae) | pest or weed control at 200 ppm (Thrips tabaci) | pest or weed control at 200 ppm (Spodoptera littoralis [1]) | pest or weed control at 200 ppm (Plutella xylostella) | pest or weed control at 200 ppm (Heliothis virescens)

Cc1cc(C2=COC(c3cc(Cl)cc(Cl)c3)(C(F)(F)F)C2)ccc1C(=O)NC(C)c1ccccc1 (centres unmarked) [Compound D11]
≥ 80%: pest or weed control at 12.5 ppm (Myzus persicae) | pest or weed control at 200 ppm (Diabrotica balteata) | pest or weed control at 200 ppm (Tetranychus urticae) | pest or weed control at 200 ppm (Thrips tabaci) | pest or weed control at 200 ppm (Spodoptera littoralis [1]) | pest or weed control at 200 ppm (Plutella xylostella) | pest or weed control at 200 ppm (Heliothis virescens)

COc1ccc(CNC(=O)c2ccc(C3=COC(c4cc(Cl)cc(Cl)c4)(C(F)(F)F)C3)cc2C)cc1 (centres unmarked) [Compound D12]
≥ 80%: pest or weed control at 12.5 ppm (Myzus persicae) | pest or weed control at 200 ppm (Diabrotica balteata) | pest or weed control at 200 ppm (Tetranychus urticae) | pest or weed control at 200 ppm (Thrips tabaci) | pest or weed control at 200 ppm (Spodoptera littoralis [1]) | pest or weed control at 200 ppm (Plutella xylostella) | pest or weed control at 200 ppm (Heliothis virescens)

Cc1cc(C2=COC(c3cc(Cl)cc(Cl)c3)(C(F)(F)F)C2)ccc1C(=O)Nc1cccc(F)c1 (centres unmarked) [Compound D14]
≥ 80%: pest or weed control at 12.5 ppm (Myzus persicae) | pest or weed control at 200 ppm (Diabrotica balteata) | pest or weed control at 200 ppm (Tetranychus urticae) | pest or weed control at 200 ppm (Thrips tabaci) | pest or weed control at 200 ppm (Spodoptera littoralis [1]) | pest or weed control at 200 ppm (Plutella xylostella) | pest or weed control at 200 ppm (Heliothis virescens)

Cc1cc(C2=COC(c3cc(Cl)cc(Cl)c3)(C(F)(F)F)C2)ccc1C(=O)NCc1ccccn1 (centres unmarked) [Compound D15]
≥ 80%: pest or weed control at 12.5 ppm (Myzus persicae) | pest or weed control at 200 ppm (Diabrotica balteata) | pest or weed control at 200 ppm (Tetranychus urticae) | pest or weed control at 200 ppm (Thrips tabaci) | pest or weed control at 200 ppm (Spodoptera littoralis [1]) | pest or weed control at 200 ppm (Plutella xylostella) | pest or weed control at 12.5 ppm (Spodoptera littoralis [2]) | pest or weed control at 200 ppm (Heliothis virescens)

Cc1cc(C2=COC(c3cc(Cl)cc(Cl)c3)(C(F)(F)F)C2)ccc1C(=O)NC1(C)CSC1 (centres unmarked) [Compound D18]
≥ 80%: pest or weed control at 12.5 ppm (Myzus persicae) | pest or weed control at 200 ppm (Diabrotica balteata) | pest or weed control at 200 ppm (Tetranychus urticae) | pest or weed control at 200 ppm (Thrips tabaci) | pest or weed control at 200 ppm (Spodoptera littoralis [1]) | pest or weed control at 200 ppm (Plutella xylostella) | pest or weed control at 200 ppm (Heliothis virescens)

Cc1cc(C2=COC(c3cc(Cl)cc(Cl)c3)(C(F)(F)F)C2)ccc1C(=O)NC1C[S+]([O-])C1 (centres unmarked) [Compound D20]
≥ 80%: pest or weed control at 12.5 ppm (Myzus persicae) | pest or weed control at 200 ppm (Diabrotica balteata) | pest or weed control at 200 ppm (Tetranychus urticae) | pest or weed control at 200 ppm (Thrips tabaci) | pest or weed control at 200 ppm (Spodoptera littoralis [1]) | pest or weed control at 200 ppm (Plutella xylostella) | pest or weed control at 12.5 ppm (Spodoptera littoralis [2]) | pest or weed control at 200 ppm (Heliothis virescens)

Cc1cc(C2=COC(c3cc(Cl)cc(Cl)c3)(C(F)(F)F)C2)ccc1C(=O)NC1CSC1 (centres unmarked) [Compound D21]
≥ 80%: pest or weed control at 12.5 ppm (Myzus persicae) | pest or weed control at 200 ppm (Diabrotica balteata) | pest or weed control at 200 ppm (Tetranychus urticae) | pest or weed control at 200 ppm (Thrips tabaci) | pest or weed control at 200 ppm (Spodoptera littoralis [1]) | pest or weed control at 200 ppm (Plutella xylostella) | pest or weed control at 12.5 ppm (Spodoptera littoralis [2]) | pest or weed control at 200 ppm (Heliothis virescens)

Cc1cc(C2=COC(c3cc(Cl)cc(Cl)c3)(C(F)(F)F)C2)ccc1C(=O)NC1CCC1 (centres unmarked) [Compound D23]
≥ 80%: pest or weed control at 12.5 ppm (Myzus persicae) | pest or weed control at 200 ppm (Diabrotica balteata) | pest or weed control at 200 ppm (Tetranychus urticae) | pest or weed control at 200 ppm (Thrips tabaci) | pest or weed control at 200 ppm (Spodoptera littoralis [1]) | pest or weed control at 200 ppm (Plutella xylostella) | pest or weed control at 200 ppm (Heliothis virescens)

Cc1cc(C2=COC(c3cc(Cl)cc(Cl)c3)(C(F)(F)F)C2)ccc1C(=O)NC1CS(=O)(=O)C1 (centres unmarked) [Compound D24, 4-[5-(3,5-Dichloro-phenyl)-5-trifluoromethyl-4,5-dihydro-furan-3-yl]-N-(1,1-dioxo-1lambda*6*-thietan-3-yl)-2-methyl-benzamide]
≥ 80%: pest or weed control at 12.5 ppm (Myzus persicae) | pest or weed control at 200 ppm (Diabrotica balteata) | pest or weed control at 200 ppm (Tetranychus urticae) | pest or weed control at 200 ppm (Thrips tabaci) | pest or weed control at 200 ppm (Spodoptera littoralis [1]) | pest or weed control at 200 ppm (Plutella xylostella) | pest or weed control at 12.5 ppm (Spodoptera littoralis [2]) | pest or weed control at 200 ppm (Heliothis virescens)
